Here are results for 27 compounds from US8754089B2, “Heterocyclic compounds and their uses” (Amgen Inc., priority 2009, dated 2014).

Usually Ki stands for a dissociation constant, usually derived from enzyme kinetics or from competition with a known ligand. Low readings indicate a stronger hold on the target, high ones a looser hold on the target.

The structures appear in SMILES notation.

The assay addresses PI3Kδ (Homo sapiens (Human), UniProt O00329). Put plainly: PI3Kδ Alphascreen assay. The assay is classed as biochemical. The method, then: Full length p110 subunits of PI3k α, β and δ, N-terminally labeled with polyHis tag, were coexpressed with p85 with Baculo virus expression vectors in sf9 insect cells. P110/p85 heterodimers were purified by sequential Ni-NTA, Q-HP, Superdex-100 chromatography. Purified α, β and δ isozymes were stored at −20° C. in 20 mM Tris, pH 8, 0.2M NaCl, 50% glycerol, 5 mM DTT, 2 mM Na cholate. […] The y isozyme was purified by sequential Ni-NTA, Superdex-200, Q-HP chromatography. The γ isozyme was stored frozen at −80° C. in NaH2PO4, pH 8, 0.2M NaCl, 1% ethylene glycol, 2 mM β-mercaptoethanol.
A PI3K Alphascreen® assay (PerkinElmer, Waltham, Mass.) was used to measure the activity of a panel of four phosphoinositide 3-kinases: PI3Kα, PI3Kβ, PI3Kγ, and PI3Kδ. Enzyme reaction buffer was prepared using sterile water (Baxter, Deerfield, Ill.) and 50 mM Tris HCl pH 7, 14 mM MgCl2, 2 mM sodium cholate, and 100 mM NaCl. 2 mM DTT was added fresh the day of the experiment. The Alphascreen buffer was made using sterile water and 10 mM Tris HCl pH 7.5, 150 mM NaCl, 0.10% Tween 20, and 30 mM EDTA. 1 mM DTT was added fresh the day of the experiment. Compound source plates used for this assay were 384-well Greiner clear polypropylene plates containing test compounds at 5 mM and diluted 1:2 over 22 concentrations. Columns 23 and 24 contained only DMSO as these wells comprised the positive and negative controls, respectively. Source plates were replicated by transferring 0.5 uL per well into 384-well Optiplates (PerkinElmer, Waltham, Mass.).
Each PI3K isoform was diluted in enzyme reaction buffer to 2× working stocks. […] PI(4,5)P2 (Echelon Biosciences, Salt Lake City, Utah) was diluted to 10 μM and ATP was diluted to 20 μM. This 2× stock was used in the assays for PI3Kα and PI3Kβ. For assay of PI3Kγ and PI3Kδ, PI(4,5)P2 was diluted to 10 μM and ATP was diluted to 8 μM to prepare a similar 2× working stock. Alphascreen reaction solutions were made using beads from the anti-GST Alphascreen kit (PerkinElmer, Waltham, Mass.). Two 4× working stocks of the Alphascreen reagents were made in Alphascreen reaction buffer. In one stock, biotinylated-IP4 (Echelon Biosciences, Salt Lake City, Utah) was diluted to 40 nM and streptavadin-donor beads were diluted to 80 μg/mL. In the second stock, PIP3-binding protein (Echelon Biosciences, Salt Lake City, Utah) was diluted to 40 nM and anti-GST-acceptor beads were diluted to 80 μg/mL.
10 μL/well of the appropriate substrate 2× stock (containing 20 μM ATP for the PI3Kα and β assays and containing 8 μM ATP for the PI3Kγ and δ assays) was then added to Columns 1-24 of all plates. Plates were then incubated at room temperature for 20 minutes. In the dark, 10 μL/well of the donor bead solution was added to columns 1-24 of the plates to quench the enzyme reaction. The plates were incubated at room temperature for 30 minutes. Still in the dark, 10 μL/well of the acceptor bead solution was added to columns 1-24 of the plates. The plates were then incubated in the dark for 1.5 hours. The plates were read on an Envision multimode Plate Reader (PerkinElmer, Waltham, Mass.) using a 680 nm excitation filter and a 520-620 nm emission filter.
Background: Bead proximity is the source of the signal in Alpha formats.

Chain of PI3Kδ (O00329 whole entry): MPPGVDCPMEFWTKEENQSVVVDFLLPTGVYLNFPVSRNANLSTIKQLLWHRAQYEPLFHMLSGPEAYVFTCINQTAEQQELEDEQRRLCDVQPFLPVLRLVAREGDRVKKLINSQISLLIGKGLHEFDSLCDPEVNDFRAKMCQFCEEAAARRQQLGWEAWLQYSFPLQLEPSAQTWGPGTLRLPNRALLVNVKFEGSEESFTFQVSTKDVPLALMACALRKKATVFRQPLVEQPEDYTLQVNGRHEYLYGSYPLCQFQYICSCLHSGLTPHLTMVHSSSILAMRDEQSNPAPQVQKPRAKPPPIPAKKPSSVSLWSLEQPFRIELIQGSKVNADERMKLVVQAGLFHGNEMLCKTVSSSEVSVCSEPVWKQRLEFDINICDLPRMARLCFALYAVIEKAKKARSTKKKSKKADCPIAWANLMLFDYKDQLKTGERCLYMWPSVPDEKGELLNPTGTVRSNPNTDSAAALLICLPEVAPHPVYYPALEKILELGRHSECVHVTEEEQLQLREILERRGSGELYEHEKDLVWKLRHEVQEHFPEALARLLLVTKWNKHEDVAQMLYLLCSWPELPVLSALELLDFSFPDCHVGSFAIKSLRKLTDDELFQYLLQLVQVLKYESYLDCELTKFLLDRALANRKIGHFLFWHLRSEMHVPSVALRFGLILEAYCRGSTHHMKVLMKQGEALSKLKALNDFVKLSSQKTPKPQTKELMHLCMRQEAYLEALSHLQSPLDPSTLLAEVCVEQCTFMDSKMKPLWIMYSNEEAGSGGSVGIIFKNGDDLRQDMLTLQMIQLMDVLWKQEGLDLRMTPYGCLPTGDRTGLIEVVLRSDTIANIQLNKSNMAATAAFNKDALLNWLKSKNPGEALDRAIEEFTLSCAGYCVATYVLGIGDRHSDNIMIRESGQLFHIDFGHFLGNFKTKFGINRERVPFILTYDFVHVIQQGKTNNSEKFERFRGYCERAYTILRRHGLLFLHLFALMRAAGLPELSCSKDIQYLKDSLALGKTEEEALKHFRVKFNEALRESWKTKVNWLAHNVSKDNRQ
Chain of PI3Kδ (P27986 whole entry partner): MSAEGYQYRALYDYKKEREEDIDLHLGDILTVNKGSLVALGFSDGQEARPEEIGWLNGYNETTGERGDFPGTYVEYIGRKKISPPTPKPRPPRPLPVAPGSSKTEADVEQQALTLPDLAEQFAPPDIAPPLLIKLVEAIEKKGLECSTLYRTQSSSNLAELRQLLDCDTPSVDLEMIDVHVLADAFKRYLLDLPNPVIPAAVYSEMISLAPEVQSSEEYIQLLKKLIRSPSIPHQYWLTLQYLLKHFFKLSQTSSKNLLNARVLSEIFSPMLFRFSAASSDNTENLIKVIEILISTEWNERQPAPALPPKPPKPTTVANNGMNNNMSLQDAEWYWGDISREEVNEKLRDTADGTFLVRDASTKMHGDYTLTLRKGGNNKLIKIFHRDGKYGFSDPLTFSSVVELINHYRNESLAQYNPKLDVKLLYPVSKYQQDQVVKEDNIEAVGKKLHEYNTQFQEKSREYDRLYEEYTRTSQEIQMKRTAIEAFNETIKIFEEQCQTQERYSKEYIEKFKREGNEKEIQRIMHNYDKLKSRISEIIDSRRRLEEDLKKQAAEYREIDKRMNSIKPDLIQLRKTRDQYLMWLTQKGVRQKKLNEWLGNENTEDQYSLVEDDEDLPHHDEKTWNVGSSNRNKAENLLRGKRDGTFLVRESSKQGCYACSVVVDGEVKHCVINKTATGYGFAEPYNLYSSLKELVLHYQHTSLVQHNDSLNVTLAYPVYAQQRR

Take `Cc1cccc2nc(C(C)Nc3ncnc4[nH]cnc34)c(-c3cccc(F)c3)c(=O)n12` (racemic) [3-(3-fluorophenyl)-6-methyl-2-(1-(9H-purin-6-ylamino)ethyl)-4H-pyrido[1,2-a]pyrimidin-4-one]: the affinity corresponds to a Ki of 0.0277 µM. Under `CC(Nc1ncnc(N)c1C#N)c1nc2ccccn2c(=O)c1-c1cc(F)cc(F)c1` (racemic) [4-Amino-6-((1-(3-(3,5-difluorophenyl)-4-oxo-4H-pyrido[1,2-a]pyrimidin-2-yl)ethyl)amino)-5-pyrimidinecarbonitrile] stands 0.089 µM. The result for `CC(Nc1ncnc(N)c1C#N)c1nc2ccccn2c(=O)c1-c1ccccc1S(C)(=O)=O` (racemic) [4-amino-6-((1-(3-(2-(methylsulfonyl)phenyl)-4-oxo-4H-pyrido[1,2-a]pyrimidin-2-yl)ethyl)amino)-5-pyrimidinecarbonitrile] reads 0.0528 µM; that for `CC(Nc1ncnc(N)c1C#N)c1nc2ccccn2c(=O)c1-c1cccc(F)c1` (racemic) [4-amino-6-((1-(3-(3-fluorophenyl)-4-oxo-4H-pyrido[1,2-a]pyrimidin-2-yl)ethyl)amino)-5-pyrimidinecarbonitrile], 0.0571 µM; that for `Cc1ccnc(-c2c(C(C)Nc3ncnc(N)c3C#N)nc3ccccn3c2=O)c1` (racemic) [4-amino-6-((1-(3-(4-methyl-2-pyridinyl)-4-oxo-4H-pyrido[1,2-a]pyrimidin-2-yl)ethyl)amino)-5-pyrimidinecarbonitrile], 0.471 µM. `CC(Nc1ncnc(N)c1C#N)c1nc2ccccn2c(=O)c1-c1ccccn1` (racemic) [4-amino-6-((1-(4-oxo-3-(2-pyridinyl)-4H-pyrido[1,2-a]pyrimidin-2-yl)ethyl)amino)-5-pyrimidinecarbonitrile] returned a Ki of 0.104 µM. Under `Cc1cccc2nc(C(C)Nc3ncnc(N)c3C#N)c(-c3ccccn3)c(=O)n12` (racemic) [4-amino-6-((1-(6-methyl-4-oxo-3-(2-pyridinyl)-4H-pyrido-[1,2-a]pyrimidin-2-yl)ethyl)amino)-5-pyrimidinecarbonitrile] stands 0.0108 µM. Under `Cc1cccc2nc(C(C)Nc3ncnc(N)c3C#N)c(-c3ccccc3)c(=O)n12` (racemic) [4-amino-6-((1-(6-methyl-4-oxo-3-phenyl-4H-pyrido[1,2-a]pyrimidin-2-yl)ethyl)amino)-5-pyrimidinecarbonitrile] stands 0.0126 µM; under `Cc1cccc2nc(C(C)Nc3ncnc(N)c3C#N)c(-c3ccccc3)c(=O)n12` (single isomer, unassigned), 1.18 µM; under `Cc1cccc2nc(Cn3nc(I)c4c(N)ncnc43)c(-c3cccc(F)c3)c(=O)n12` [2-((4-amino-3-iodo-1H-pyrazolo[3,4-d]pyrimidin-1-yl)methyl)-3-(3-fluorophenyl)-6-methyl-4H-pyrido[1,2-a]pyrimidin-4-one], 0.0849 µM. Under `Cc1ccccc1-c1c(Cn2cnc3c(N)ncnc32)nc2cccc(C)n2c1=O` [2-((6-amino-9H-purin-9-yl)methyl)-6-methyl-3-(2-methylphenyl)-4H-pyrido[1,2-a]pyrimidin-4-one] stands 6.28 µM. On to `Cc1cccc2nc(CNc3ncnc4[nH]cnc34)c(-c3cccc(F)c3)c(=O)n12` [3-(3-Fluorophenyl)-6-methyl-2-((9H-purin-6-ylamino)methyl)-4H-pyrido[1,2-a]pyrimidin-4-one], for which affinity was put at a Ki of 0.711 µM. Consider `Cc1cccc2nc([C@@H](C)Nc3ncnc4[nH]cnc34)c(-c3cccc(F)c3)c(=O)n12` [3-(3-fluorophenyl)-6-methyl-2-((1R)-1-(9H-purin-6-ylamino)ethyl)-4H-pyrido[1,2-a]pyrimidin-4-one], for which the Ki came to 0.802 µM.

The compound `Cc1cccc2nc([C@H](C)Nc3ncnc4[nH]cnc34)c(-c3cccc(F)c3)c(=O)n12` [3-(3-fluorophenyl)-6-methyl-2-((1S)-1-(9H-purin-6-ylamino)ethyl)-4H-pyrido[1,2-a]pyrimidin-4-one] showed a Ki of 0.0231 µM. Regarding `C[C@@H](Nc1ncnc(N)c1C#N)c1nc2ccccn2c(=O)c1-c1cccc(F)c1` [4-Amino-6-(((1R)-1-(3-(3-fluorophenyl)-4-oxo-4H-pyrido[1,2-a]pyrimidin-2-yl)ethyl)amino)-5-pyrimidinecarbonitrile], the Ki was 1.88 µM. This Ki is about 81-fold higher than that of the compound before. The result for `CC(Nc1ncnc(N)c1C#N)c1c(-c2cc(F)cc(F)c2)c(=O)c2cc(F)ccc2n1C` (stereo not drawn) [4-amino-6-((1-(3-(3,5-difluorophenyl)-6-fluoro-1-methyl-4-oxo-1,4-dihydro-2-quinolinyl)ethyl)amino)-5-pyrimidinecarbonitrile] reads 0.033 µM. `C[C@@H](Nc1ncnc(N)c1C#N)c1nc2ccccn2c(=O)c1-c1ccccc1S(C)(=O)=O` [4-amino-6-(((1R)-1-(3-(2-(methylsulfonyl)phenyl)-4-oxo-4H-pyrido[1,2-a]pyrimidin-2-yl)ethyl)amino)-5-pyrimidinecarbonitrile] displayed a Ki of 24.6 µM. The result for `C[C@@H](Nc1ncnc(N)c1C#N)c1nc2ccccn2c(=O)c1-c1cc(F)cc(F)c1` [4-amino-6-(((1R)-1-(3-(3,5-difluorophenyl)-4-oxo-4H-pyrido[1,2-a]pyrimidin-2-yl)ethyl)amino)-5-pyrimidinecarbonitrile] reads 320 µM; that for `Cc1ccnc(-c2c([C@@H](C)Nc3ncnc(N)c3C#N)nc3ccccn3c2=O)c1` [4-amino-6-(((1R)-1-(3-(4-methyl-2-pyridinyl)-4-oxo-4H-pyrido[1,2-a]pyrimidin-2-yl)ethyl)amino)-5-pyrimidinecarbonitrile], 9.27 µM; that for `C[C@@H](Nc1ncnc(N)c1C#N)c1nc2ccccn2c(=O)c1-c1ccccn1` [4-amino-6-(((1R)-1-(4-oxo-3-(2-pyridinyl)-4H-pyrido[1,2-a]pyrimidin-2-yl)ethyl)amino)-5-pyrimidinecarbonitrile], 0.585 µM. As to `Cc1cccc2nc([C@@H](C)Nc3ncnc(N)c3C#N)c(-c3ccccn3)c(=O)n12` [4-amino-6-(((1R)-1-(6-methyl-4-oxo-3-(2-pyridinyl)-4H-pyrido[1,2-a]pyrimidin-2-yl)ethyl)amino)-5-pyrimidine-carbonitrile], the affinity corresponds to a Ki of 10.7 µM.

For `C[C@H](Nc1ncnc(N)c1C#N)c1nc2ccccn2c(=O)c1-c1ccccc1S(C)(=O)=O` [4-amino-6-(((1S)-1-(3-(2-(methylsulfonyl)phenyl)-4-oxo-4H-pyrido[1,2-a]pyrimidin-2-yl)ethyl)amino)-5-pyrimidinecarbonitrile], the Ki is 0.0537 µM. The compound `C[C@H](Nc1ncnc(N)c1C#N)c1nc2ccccn2c(=O)c1-c1cc(F)cc(F)c1` [4-amino-6-(((1S)-1-(3-(3,5-difluorophenyl)-4-oxo-4H-pyrido[1,2-a]pyrimidin-2-yl)ethyl)amino)-5-pyrimidinecarbonitrile] came in with a Ki of 0.0216 µM.

Turning to `C[C@H](Nc1ncnc(N)c1C#N)c1nc2ccccn2c(=O)c1-c1cccc(F)c1` [4-amino-6-(((1S)-1-(3-(3-fluorophenyl)-4-oxo-4H-pyrido[1,2-a]pyrimidin-2-yl)ethyl)amino)-5-pyrimidinecarbonitrile], the affinity, expressed as Ki, was 0.0157 µM. The result for `Cc1ccnc(-c2c([C@H](C)Nc3ncnc(N)c3C#N)nc3ccccn3c2=O)c1` [4-amino-6-(((1S)-1-(3-(4-methyl-2-pyridinyl)-4-oxo-4H-pyrido[1,2-a]pyrimidin-2-yl)ethyl)amino)-5-pyrimidinecarbonitrile] reads 0.23 µM. Under `C[C@H](Nc1ncnc(N)c1C#N)c1nc2ccccn2c(=O)c1-c1ccccn1` [4-amino-6-(((1S)-1-(4-oxo-3-(2-pyridinyl)-4H-pyrido[1,2-a]pyrimidin-2-yl)ethyl)amino)-5-pyrimidinecarbonitrile] stands 0.0424 µM. In turn, `Cc1cccc2nc([C@H](C)Nc3ncnc(N)c3C#N)c(-c3ccccn3)c(=O)n12` [4-amino-6-(((1S)-1-(6-methyl-4-oxo-3-(2-pyridinyl)-4H-pyrido[1,2-a]pyrimidin-2-yl)ethyl)amino)-5-pyrimidinecarbonitrile] yielded a Ki of 0.0214 µM.
